Reference: US20130171141A1, “COMBINATION OF HDAC INHIBITORS WITH THROMBOCYTOPENIA DRUGS” (NOVARTIS AG, priority 2010, published 2013)

Legend:
murine platelet lifespan = test: Platelet clearance analysis (biotinylated platelet lifespan) in HDACi-treated mice; settings: for decrease in labelled (biotinylated) platelets in peripheral blood over time: IV NHS-biotin, seven days, 10 mg/kg panobinostat IP or 1 mg/kg romidepsin IP daily, compared to vehicle
Protocol: Mice were twice injected intravenously (IV), one hour apart, with 600 μg NHS-biotin in phospho-buffered saline (PBS) and 10% dimethyl sulphoxide (DMSO). At various time points peripheral blood was isolated from the tail, and 1 μl blood was washed twice in PBS and 10 mM EDTA. Platelets were stained with phycoerythrin-conjugated rat anti-CD41 and allophycocyanin-conjugated streptavidin (APC-A) for 30 minutes on ice. Samples were washed again and incubated with 0.125 μg/ml thiazole orange, which has increased uptake in high RNA-containing platelets, staining younger, reticulated platelet fraction, for 90 minutes. Flow cytometry was then performed on an LSR flow cytometer. By plotting the number of biotinylated platelets against time, an estimate of the life span was obtained by linear extrapolation, while the number of thiazole orange-positive, non-biotinylated platelets provided an estimate of new platelet production.
The mice were then treated for seven days with either 10 mg/kg panobinostat IP or 1 mg/kg romidepsin IP daily or vehicle, and the number of biotinylated platelets in peripheral blood was determined. […] ABT-737 is a BH3 mimetic that inhibits Bcl-xL, which causes direct platelet apoptosis. […] Megakaryocytes are the haematopoietic cells responsible for the production of platelets which reside in the bone marrow.

reticulated platelets = test: Reticulated platelet staining (thiazole orange), new platelet production; assay type: in vivo, C57BL/6 mice; settings: for absolute number of reticulated (new) platelets: 6 day experiment, thiazole orange, FIG. 2
Protocol: To assess platelet production, C57BL/6 mice were treated with panobinostat, carboplatin and ABT-737, and the RNA-containing platelet fraction (i.e. new platelets) was determined by staining with thiazole orange (FIG. 2). The number of new, reticulated platelets in vehicle-treated mice remained relatively constant over the 6 day time span of the experiment.

thrombocytopenia (TCP) = test: HDACi-induced thrombocytopenia and co-treatment with TPO-mimetic; assay type: in vivo; settings: wild-type C57BL/6 mice, 10 mg/kg IP daily, 12-day period
Protocol: To determine whether administration of a TPO-mimetic could ameliorate TCP, some of the panobinostat-treated mice were subjected to co-treatment with 20 μg/kg AMP-4 at day 0 and day 6 (FIG. 3).
To determine whether administration of a TPO-mimetic could ameliorate TCP, some of the romidepsin-treated mice were subjected to co-treatment with 20 μg/kg AMP-4 at day 0 and day 6 (FIG. 4).

platelet count [1] = test: Compound III with eltrombopag in Hodgkin's lymphoma patient; assay type: in vivo, human; settings: recommended dosage of compound III, Example 1
Protocol: (§1) A patient having Hodgkin's lymphoma is given the recommend dosage of compound III. […] A patient having Hodgkin's lymphoma is tested for thrombocytopenia. Patient is found to have a low blood cell count or a biomarker for thrombocytopenia. Patient is put on a regimen of compound III together with eltrombopag.

platelet count [2] = test: Compound III with eltrombopag in multiple myeloma patient; assay type: in vivo, human; settings: recommended dosage of compound III, Example 3
Protocol: as §1, with “patient having multiple myeloma patient is given” for “patient having Hodgkin's lymphoma is given”

Compound | reduction in platelet number (murine platelet lifespan; biotinylated platelets, two hours following administration) [%] | decrease in labelled (biotinylated) platelets in peripheral blood over time (murine platelet lifespan; mice, FIG. 1) | absolute number of reticulated (new) platelets (reticulated platelets; C57BL/6 mice) | platelet life span (murine platelet lifespan; mice, FIG. 1) | absolute reticulated platelet numbers (reticulated platelets; 6 days after the commencement of treatment) | new platelet production (reticulated platelets; first 4 days of treatment) | platelet count versus baseline (reticulated platelets; C57BL/6 mice, throughout the course of the experiment) | thrombocytopenia (TCP) (thrombocytopenia (TCP)) | patient's platelet count (platelet count [1]) | patient's platelet count (platelet count [2])
CN(C)CC[C@H](CSc1ccccc1)Nc1ccc(S(=O)(=O)NC(=O)c2ccc(N3CCN(Cc4ccccc4-c4ccc(Cl)cc4)CC3)cc2)cc1[N+](=O)[O-] [ABT-737] | 50 | rapidly reduced | substantial increase |  |  |  |  |  |  | 
N.N.O=C([O-])C1(C(=O)[O-])CCC1.[Pt+2] [carboplatin] |  |  |  | did not affect | significantly reduced | did not significantly affect |  |  |  | 
Cc1[nH]c2ccccc2c1CCNCc1ccc(/C=C/C(=O)NO)cc1 [panobinostat, N-hydroxy-3-[4-[[[2-(2-methyl-1H-indol-3-yl)-ethyl]-amino]methyl]phenyl]-2E-2-propenamide] |  | remained similar to vehicle-treated mice | dramatic decrease |  |  |  | remained well below baseline levels | sustained TCP | begins to lower | begins to lower
C/C=C1\NC(=O)[C@H]2CSSCC/C=C/[C@H](CC(=O)N[C@H](C(C)C)C(=O)N2)OC(=O)[C@H](C(C)C)NC1=O [romidepsin] |  | remained similar to vehicle-treated mice |  |  |  |  |  | sustained TCP |  | 
